Data published in ChEMBL document CHEMBL5726417, “Therapeutic agent for pain” (2017).

These molecules were tested against 11-beta-hydroxysteroid dehydrogenase 1 (Rattus norvegicus, UniProt P16232) (assay: Inhibition Assay: The procedure for measuring the 11β-HSD1-inhibitory activity is as follows. The enzyme reaction and the measurement were carried out using a 384-well plate. The enzyme was prepared in accordance with Journal of Biological Chemistry, 2001, Vol. 276, p. 21343-21350. The reaction was carried out by adding a test compound at various concentrations to a reaction liquid consisting of a 5 mM phosphate buffer (pH 6.6), 200 nM cortisone, 40 μM reduced nicotinamide adenine dinucleotide phosphate (NADPH), and rat recombinant 11β-HSD1, followed by incubating at room temperature for one hour (10 μl/well). The test compound was prepared by dissolving in dimethyl sulfoxide (DMSO) such that a DMSO concentration reached 1% in the reaction liquid. After the enzyme reaction was completed, the enzyme inhibitory action was measured by detecting cortisol using a homogeneous time-resolved fluorescence (HTRF) method. Each of a d2-labeled cortisol containing 400 μM carbenoxolone and a cryptate-labeled cortisol antibody (CIS Bio International Co., Ltd.) was added at 5 μl/well, followed by incubating at room temperature for 2 hours, and then the fluorescence intensity was measured using a fluorophotometer (trade name: ARVO HTS 1420, Perkin Elmer/Wallac), and the enzyme inhibitory activity was calculated from the fluorescence intensity ratio of two wavelengths (665 nm/620 nm).The measurement results were calculated by averaging the values of 3 wells of the same condition. The ratio when DMSO was added instead of the test compound was taken as 0% and the ratio when 11β-HSD1 was not added was taken as 100%, thereby calculating the 50% inhibition concentration of the test compound as IC50 of the compound inhibitory activity.).
11-beta-hydroxysteroid dehydrogenase 1, sequence (P16232 whole entry): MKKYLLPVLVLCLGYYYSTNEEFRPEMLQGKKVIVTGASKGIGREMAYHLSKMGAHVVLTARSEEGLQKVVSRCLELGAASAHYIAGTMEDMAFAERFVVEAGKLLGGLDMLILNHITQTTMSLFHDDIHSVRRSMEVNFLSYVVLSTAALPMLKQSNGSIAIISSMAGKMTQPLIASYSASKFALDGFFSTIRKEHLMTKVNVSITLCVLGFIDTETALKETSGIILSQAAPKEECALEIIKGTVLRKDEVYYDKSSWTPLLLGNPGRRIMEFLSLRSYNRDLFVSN

| Structure (SMILES) | IC50 |
| --- | --- |
| Cn1c(-c2ccc(F)cc2Cl)nnc1C(C)(C)Oc1c(F)cc(F)cc1F | 52 nM |
| Cn1c(-c2ccc(C(N)=O)cc2F)nnc1C(C)(C)Oc1c(F)cc(Cl)cc1F [CLOFUTRIBEN] | 135 nM |
| CC(C)n1c(-c2ccc(C(N)=O)cc2F)nnc1C(C)(C)Oc1c(F)cc(F)cc1F | 23 nM |
| CCn1c(-c2ccc(C(N)=O)cc2)nnc1C(C)(C)Oc1c(F)cc(Cl)cc1F | 70 nM |
